Results: patent US6057366A (priority 1994, dated 2000)
“Also recorded” adds a separate entry of the source.

How the values were obtained:
[1] = tested on: avocado lipoxygenase; conditions: declines during ripening of the fruit; cited from earlier work
[2] = tested on: lactating mammary gland; format: in vivo, mouse; conditions: for activity in inducing widespread lactating mammary gland necrosis: 50-100 mg/kg body weight
Source text: (§1) White lactating female Quackenbush mice of body weight 40-50 g were used. All animal experiments followed the code of practice for the care and use of animals for experimental purposes as outlined by the Australian National Health and Medical Research Council. For the toxicity testing of leaf and crude extracts, on the fourth day after parturition the litter of each mouse was reduced to eight pups and weights of dam and litter respectively recorded. The dam was then separated from the litter and fasted overnight. On the following day and for 24 hours thereafter, the dam was offered 20 g of powdered commercial rodent diet containing 5% of powdered freeze-dried avocado leaf. In the case of preliminary organic extracts of the leaf, equivalent quantities were added to 20 g of powdered rodent diet, mixed thoroughly and the solvent evaporated under reduced pressure. After 24 hours on the medicated diet, regular untreated cubed diet was provided and the litter restored to the dam. At later stages of the isolation and purification of the active principle, the compound was suspended in up to 1 ml of 1% Tween 80 or Intralipid and given as a single dose by gavage on days 4 to 5 of lactation without prior fasting of the dam and simultaneous temporary removal of her pups. The dam and her pups were weighed daily. […] From 3 to 7 days after exposure to the avocado supplemented diet, or gavage of the purified extracts as the case may be, the dam was euthanased with carbon dioxide and all mammary glands and heart removed and fixed in buffered neutral 10% formalin for pathological examination.
The R and S isomers of persin were tested for activity required to induce widespread lactating mammary gland necrosis at the dose rate of 50-100 mg/kg body weight.

[3] = Pathological effects on the myocardium after oral dosing; format: in vivo, mouse; conditions: myocardium; mouse, oral; read-out: dose above which necrosis of myocardial fibres may occur
Source text: as §1

[4] = tested on: myocardium; assay: as above; format: in vivo, mouse
Source text: as §1

[5] = tested on: silkworm larvae; conditions: isolated from avocado leaves; Chang et al. 1975; cited from earlier work
[6] = tested on: heat and lactating mammary gland of the mouse; conditions: Sani et al., 1993 symposium; cited from earlier work
[7] = tested on: human colon cancer cell line (LS174T); assay: Neutral red dye uptake assay (in vitro cytotoxicity), human colon cancer cell line; format: cell-based; conditions: any dose tested (10 to 0.3125 μg/ml), 20 hours
[8] = tested on: human breast cancer cell lines (MCF7, ZR75, T47D); assay: Neutral red dye uptake assay (in vitro cytotoxicity), human breast cancer cell lines; format: cell-based; conditions: 10 to 0.3125 μg/ml, 20 hours incubation, average of 2 experiments, actual concentration reaching the cells unknown
Source text: For purposes of using a rapid, simple and cheap method of pre-screening cytotoxicity, we chose the neutral red dye uptake procedure to test such activity in the given extract.
Human breast and ovarian cancer cell lines were maintained in RPMI 1640 culture medium supplemented with 10% fetal calf serum, 2 mm L-glutamine and penicillin, streptomycin and fungizone. Cells were passaged by trypsinization and plated in 96-well flat-bottomed tissue culture plates at 5×10^4 cells per well. Cells were preincubated for 6 hours at 37° C., 5% CO2 in a humidified atmosphere to allow cell attachment prior to addition of the extract.
Persin was dissolved in DMF (supplied by National Research Centre for Environmental Toxicology) to give a stock solution of 100 μg/ml. […] 10 μl of the solution was added to quadruplicate wells in doubling dilution from 10 μg/ml to 0.3125 μg/ml (final concentration). Control wells had tissue culture diluent added only. DMF controls had DMF added to a final concentration of 0.1%. The extract was incubated with the cells for 20 hours before being gently aspirated. Cells were washed twice with Hanks Balanced Salt Solution (HBSS) with centrifugation in special microtiter plate carriers between washes so as not to lose viable but dislodged cells.
Neutral red was prepared fresh before each experiment from a 1% stock solution. One hundred microtiters of working solution (67 μg/ml in HBSS) was added to all wells and incubation continued for a further 4 hours. Non-absorbed dye was removed by washing cells as described above.
Absorbed dye was extracted from cells by adding 100 μl of 50% ethanol in 1% acetic acid.
Plates were mixed thoroughly to allow full extraction of the dye and were then read in a Multiscan plate reader at 540 nm. Dose response curves were constructed by plotting the percentage of untreated/control well OD540 versus concentration of extract. Individual extract concentration points were tested in quadruplicate and the results presented are averaged from 2 separate experiments. […]

[9] = tested on: Colletotrichum gloeosporioides; conditions: cited from earlier work
[10] = tested on: lactating mammary gland; conditions: Craigmill et al. (1989), cited from earlier work
[11] = tested on: lactating mammary gland; format: in vivo; conditions: even as high single dose 200 mg/kg, mouse

SMILES: Oc1cc(O)c2c(c1)O[C@H](c1ccc(O)c(O)c1)[C@H](O)C2 [epicatechin]
- inhibition of avocado lipoxygenase [1]: inhibitor of the enzyme

SMILES: CCCCC/C=C\C/C=C\CCCCCCCC(=O)CC(O)COC(C)=O (racemic) [mixture of isomers in equal proportions]
- activity in inducing widespread lactating mammary gland necrosis ([2]; mouse): less active than the R isomer

SMILES: CCCCC/C=C\C/C=C\CCCCCCCC(=O)C[C@@H](O)COC(C)=O [persin, (+)-(Z,Z)-1-acetyloxy-2-hydroxy-12,15-heneicosadien-4-one]
- NOAEL [3]: > 100 mg/kg
- myocardium histology (FIG. 9C) ([4]; 100 mg/kg orally, seven days previously): marked atrophy of muscle fibres (M) interstitial haemorrhage (H) and early scar tissue formation (S)
- myocardial fibrosis ([4]; doses above 100 mg/kg, animals surviving for seven days): areas of myocardial fibrosis can be observed in animals surviving for seven days
- hydrothorax / pulmonary oedema ([4]; doses above 100 mg/kg, more severely affected animals): Hydrothoraz and/or pulmonary oedema may be present in more severly affected animals
- damage to heart muscle ([4]; present studies): causes damage both to the lactating mammary gland and the heart muscle
- growth of silkworm larvae [5]: inhibited the growth of silkworm larvae
- toxicity for heart and lactating mammary gland [6]: responsible for demonstrated toxicity for the heat and lactating mammary gland of the mouse
- effect on human colon cancer cell line (neutral red uptake) [7]: not affected by the extract at any dose tested
- sensitivity of human breast cancer cell lines relative to other cell lines (neutral red uptake) [8]: Three human breast cancer cell lines showed greater sensitivity to the extract than other cell lines tested; also recorded: the three human breast cancer cell lines showing the greatest sensitivity to the compounds
- sensitivity of human breast cancer cell lines relative to other cell lines (neutral red uptake) ([8]; listed as extract): the human breast cancer cell lines were more sensitive to the extract than the other cell lines
- antifungal activity ([9]; isolated from avocado fruit peel or whole fruits, refs (ii) to (xiii)): exhibits antifungal activity in relation to the fungus Colletotrichum gloeosporioides
- loss of activity on double bond oxidation ([9]; natural compound, reference (v)): loses activity due to double bond oxidation
- activity in inducing widespread lactating mammary gland necrosis ([2]; mouse): active
- mammary epithelium histology (FIG. 9A) ([2]; 72 hours after single oral dose of 60 mg/kg on 4th day of lactation): extensive coagulative necrosis of the secretory tissues
- single oral dose required to induce widespread, non-fatal injury to the lactating mammary gland ([2]; mouse, single oral dose): 60 to 100 mg/kg
- character of the mammary gland injury ([2]; mouse, single oral dose, 60 to 100 mg/kg): interstitial oedema, congestion and haemorrhage and coagulative necrosis with desquamation of the acinar epithelial cells thereby preventing lactation
- inhibition of milk secretion ([2]; oral dosing): inhibition of milk secretion through such a necrogenic action on the secretory epithelium
- damage to lactating mammary gland ([2]; present studies): causes damage both to the lactating mammary gland and the heart muscle

SMILES: COc1cc2c(c(OC)c1OC)-c1ccc(OC)c(=O)cc1[C@@H](NC(C)=O)CC2 [colchicine]
- mechanism: microtubule inhibition [10]: microtubule inhibitors
- effect on milk ejection from secretory acinar cells ([10]; locally applied to the acinar cells): prevent ejection of milk from the cells into the acinar lumen

SMILES: CCCCCCCCCCCCCCCCCC(=O)C[C@@H](O)COC(C)=O [RMC328, (R)-2-Hydroxy-4-oxohenicosan-1-yl Acetate]
- sensitivity of human breast cancer cell lines relative to other cell lines (neutral red uptake) [8]: the three human breast cancer cell lines showing the greatest sensitivity to the compounds

SMILES: CCCCC/C=C\C/C=C\CCCCCCCC(=O)C[C@H](O)COC(C)=O [S isomer, (2S)-2-hydroxy-4-oxo-henicosa-12Z,15Z-dien-1-yl acetate]
- activity in inducing widespread lactating mammary gland necrosis (high single dose) [11]: inactive
